Reference: paper PMC5597618, “Identification and characterization of the novel reversible and selective cathepsin X inhibitors” (Scientific Reports, 2017)
Like-named read-outs stand apart in the source and are kept apart here.

Experiments:
[1] = biological target: cathepsin X; conditions: cited from earlier work
[2] = biological target: T1, cathepsin X in lysates of PC-3 cells (Homo sapiens, UniProt Q9UBR2); assay: Cathepsin X activity in PC-3 cell lysates; format: cell-based; conditions: 10 μM
T1 construct: endogenous in cells; host or cells: PC-3
T1 sequence (Q9UBR2 62-303): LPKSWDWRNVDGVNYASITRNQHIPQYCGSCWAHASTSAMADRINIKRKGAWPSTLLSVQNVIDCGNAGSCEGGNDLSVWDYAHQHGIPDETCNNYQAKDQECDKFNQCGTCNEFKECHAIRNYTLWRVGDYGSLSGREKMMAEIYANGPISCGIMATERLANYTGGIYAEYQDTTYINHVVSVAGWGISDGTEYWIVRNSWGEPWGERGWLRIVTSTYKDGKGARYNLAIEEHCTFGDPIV
Procedure: To detect cathepsin X activity in cell lysates, 95 μL of activated cell lysates (0.2 mg/mL total protein in assay buffer) were added to a black 96-well plate containing 5 μL of the substrate. The further procedure was the same as above. In some experiments lysates of non-treated cells were pre-incubated with 10 μM of compounds for 30 minutes and then activity was measured as described above.
For testing the enzyme activity in cell lysates, cells were treated with 10 μM of compounds. After 24 hours lysates were prepared in 50 mM Na acetate buffer pH 5.5 with 1 mM EDTA, 100 mM NaCl and 0.25% Triton X-100. Total protein concentration was determined by DC Protein Assay (Bio Rad) according to the instructions.

[3] = biological target: T2, Cathepsin S (Homo sapiens, UniProt P25774); assay: Ki against cathepsin S (Z-VVR-AMC); format: biochemical; conditions: SigmaPlot at 3 different substrate concentrations; pH 6.5
T2 construct: made in house; host or cells: Pichia pastoris
T2 sequence (P25774 115-331): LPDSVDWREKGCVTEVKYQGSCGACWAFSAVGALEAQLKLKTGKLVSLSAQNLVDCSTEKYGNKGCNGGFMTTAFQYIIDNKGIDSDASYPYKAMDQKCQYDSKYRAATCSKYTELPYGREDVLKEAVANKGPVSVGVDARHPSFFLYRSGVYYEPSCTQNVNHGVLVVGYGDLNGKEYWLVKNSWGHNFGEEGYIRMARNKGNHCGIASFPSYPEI
Procedure: (§1) Recombinant or native human cathepsins were used: recombinant cathepsin X and cathepsin S were expressed in Pichia pastoris, recombinant cathepsins B and L in E. coli, [43], native cathepsin H was isolated from human liver. Assay buffers for determining activities of cathepsins X and L consisted of 100 mM sodium acetate buffer, pH 5.5, for cathepsins H, S and B (endopeptidase activity) of 100 mM phosphate buffer pH 6.8, 6.5 and 6.0, respectively and for cathepsin B (exopeptidase activity) of 60 mM acetate buffer pH 5.0. Each assay buffer contained 0.01% Triton X-100 to prevent false positive inhibition due to aggregation of compounds[45], 5 mM cysteine, 1.5 mM EDTA and 0.1% PEG 8000. Enzymes were activated at 37 °C for 5 min before the assays.
(§2) Ki was determined by measuring the initial rate of hydrolysis at three different substrate concentrations (Supplementary Table S2) in the presence of seven different compound concentrations (0, 20, 40, 60, 80, 100 and 200 μM). 90 μL of the activated cathepsin was added to a black 96-well plate with 5 μL of the substrate and 5 μL of the compound. Formation of the fluorescent degradation product was monitored continuously at 460 nm ± 10 nm with excitation at 380 nm ± 20 nm (for AMC substrates) and, as noted above for Abz substrates, at 37 °C. All measurements were performed twice and in duplicate. The resulting data were analyzed by non-linear regression using the software SigmaPlot®, Enzyme Kinetics Module™ 1.3 and were fitted to the equation v = v max [S]/([S] (1 + [I]/αK i ) + K m (1 + [I]/K i )) (first group of compounds). For Ki determination against cathepsin X for the compounds from the second group, progress curves in the absence and presence of each putative inhibitor were fitted to the reaction mechanism presented in Fig. 3b. In this case the resulting data as well as reactivation curves were fitted to the equation system presented in Fig. 3c using ENZO application. For calculation of kinetic parameters from reaction progress curves the fluorescence coefficient for conversion of arbitrary fluorescence units to concentration was first determined. The fluorescence coefficient was calculated as the slope from the plot of initial substrate concentration vs. height of the plateau of the progress curve after complete hydrolysis of increasing concentrations of substrate, using linear regression.
(§3) Supplementary Table S2. Substrates used for the various cathepsins and their concentrations […]
(§4) Enzyme Substrate Concentration (µM) Reference/Company cathepsin X Abz-FEK(Dnp)-OH 3.25, 6.5, 13 Puzer et al.3 cathepsin B - endopept. Z-RR-AMC 60, 180, 360 Bachem cathepsin B - exopept. Abz-GIVRAK(Dnp)-OH 1, 3, 6 Bachem cathepsin S Z-VVR-AMC 0.5, 1, 1.5 Biomol cathepsin L Z-FR-AMC 0.5, 1, 4 Bachem cathepsin H Z-R-AMC 20, 80, 160 Biomol […]

[4] = biological target: T3, cathepsin X (Homo sapiens, UniProt Q9UBR2); assay: Determination of relative inhibition of cathepsin X; format: biochemical; set-up: made in house; host or cells: Pichia pastoris
T3 sequence (Q9UBR2 62-303): as the sequence (Q9UBR2 62-303) above
Procedure: as §1
Abz-FEK(Dnp)-OH was used as cathepsin X specific substrate in activity assays. 90 μL of activated cathepsin X (20 nM) was added to a black 96-well plate with 5 μL of substrate (3.25 μM final concentration) and 5 μL of the compound (50 μM final concentration). The reaction was monitored continuously at 420 nm ± 10 nm with excitation at 320 nm ± 20 nm and at 37 °C. Relative inhibition (%) was calculated with the equation (1 − v i/v 0) × 100, where v i is reaction velocity in the presence of the compound and v 0 is reaction velocity without the compound.

[5] = biological target: T4, Cathepsin B (endopeptidase a.) (Homo sapiens, UniProt P07858); assay: Ki against cathepsin B endopeptidase activity (Z-RR-AMC); format: biochemical; conditions: SigmaPlot at 3 different substrate concentrations; pH 6.0
T4 construct: made in house; host or cells: E. coli
Procedure: as §1, §2, §3, §4

[6] = biological target: T5, Cathepsin H (Homo sapiens, UniProt P09668); assay: Ki against cathepsin H (Z-R-AMC); format: biochemical; conditions: SigmaPlot at 3 different substrate concentrations; pH 6.8
T5 construct: native cathepsin H was isolated from human liver; from tissue; host or cells: human liver
T5 sequence (P09668 116-335 limits assumed, other chains not shown): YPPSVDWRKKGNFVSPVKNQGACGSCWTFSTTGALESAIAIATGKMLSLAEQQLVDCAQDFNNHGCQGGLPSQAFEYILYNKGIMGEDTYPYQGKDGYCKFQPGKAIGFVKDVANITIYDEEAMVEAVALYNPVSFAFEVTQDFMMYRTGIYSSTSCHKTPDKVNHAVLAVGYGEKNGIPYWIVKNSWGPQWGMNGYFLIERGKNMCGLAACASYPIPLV
Procedure: as §1, §2, §3, §4

[7] = test system: PC-3 cells; assay: Real time cell migration assay (xCELLigence, CIM plates); format: cell-based, human; conditions: 10 μM, compound in upper and bottom compartments, vs DMSO; for inhibition at 10 µM: Homo sapiens, PC-3
Procedure: (§5) Human prostate cancer cell line PC-3 cells (obtained from ATCC, Manassas, USA; ATCC Number: CRL-1435) were cultured in F-12 (Gibco) and Advanced DMEM (Gibco) (1:1) with 10% FBS, 1% penicillin/streptomycin and 1% L-glutamine. Rat pheochromocytoma PC-12 cells (obtained from ATCC, Manassas, USA; ATCC Number: CRL-1721) were cultured in Advanced DMEM (Gibco) with 5% FBS, 10% heat-inactivated horse serum, 1% penicillin/streptomycin and 1% L-glutamine.
Cell migration assay was performed on a Real-Time Cell Analyzer Dual Plate (RTCA DP) Instrument, xCELLigence System (ACEA Biosciences). CIM plates were coated with fibronectin (10 μg/ml, BD Biosciences) on the down and upper side of the microporous PET membrane for 30 min at room temperature and 2 hours at 37 °C, respectively. Excess fibronectin was removed and wells washed with phosphate buffer saline (PBS). Compounds (10 μM) were added to the complete media (lower chambers) or serum-free media (upper chambers). 0.1% DMSO was used as a control. 2 × 10^4 cells were plated per well. In additional experimental setting, inhibitors were added only to the upper chambers 3 hours after experiment started in order to measure their impact only on the cell migration and not the adhesion. Impedance data, reported as cell index, were measured continuously every 15 min for 72 hours and then analyzed with the RTCA Software (ACEA Biosciences, Inc.). Results are normalized to cells treated with DMSO.

[8] = biological target: T3, cathepsin X; assay: Determination of Ki values and inhibition mechanism against cathepsin X (Abz-FEK(Dnp)-OH substrate); format: biochemical; set-up: made in house; host or cells: Pichia pastoris; conditions: for Inhibition mechanism: ENZO
Procedure: as §1, §2, §3, §4

[9] = biological target: T6, Cathepsin B (exopeptidase a.) (Homo sapiens, UniProt P07858); assay: Ki against cathepsin B exopeptidase activity (Abz-GIVRAK(Dnp)-OH); format: biochemical; conditions: SigmaPlot at 3 different substrate concentrations; pH 5.0
T6 construct: made in house; host or cells: E. coli
Procedure: as §1, §2, §3, §4

[10] = biological target: T7, Cathepsin L (Homo sapiens, UniProt P07711); assay: Ki against cathepsin L (Z-FR-AMC); format: biochemical; conditions: SigmaPlot at 3 different substrate concentrations; pH 5.5
T7 construct: made in house; host or cells: E. coli
T7 sequence (P07711 114-333): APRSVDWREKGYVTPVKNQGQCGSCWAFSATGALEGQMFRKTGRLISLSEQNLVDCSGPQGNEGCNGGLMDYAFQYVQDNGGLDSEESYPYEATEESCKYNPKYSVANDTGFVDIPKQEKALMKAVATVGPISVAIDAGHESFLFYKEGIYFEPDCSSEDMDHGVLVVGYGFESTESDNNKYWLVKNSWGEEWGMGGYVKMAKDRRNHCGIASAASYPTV
Procedure: as §1, §2, §3, §4

[11] = test system: PC-12 cells; assay: Neurite outgrowth assay; format: cell-based, rat; conditions: 10 µM; 48 h; vs DMSO control
Procedure: as §5
PC-12 cells were seeded in 96-well plates (4 × 10^4/well) coated with poly-L-lysine. Next day, the cells were treated with compounds (10 µM) in serum-free medium, and neurite outgrowth was measured after 48 h using Neurite Outgrowth Staining Kit (Molecular Probes), in accordance with the manufacturer’s instructions. Fluorescence intensity was measured at 525 nm with excitation at 483 nm for cell viability indicator and at 567 nm with excitation at 554 nm for cell membrane indicator. Results, expressing increased neurite outgrowth, were normalized to cells treated with DMSO.

[12] = biological target: T3, cathepsin X; assay: Reversibility of binding: washout experiment and dilution method; format: biochemical; set-up: made in house; host or cells: Pichia pastoris
Procedure: The reversibility of binding was determined in two separate experiments. In the washout experiment[47] 20 nM cathepsin X was mixed with a saturating level of the inhibitor (100 μM) and incubated for 1 hour at room temperature. One half of the reaction mixture was assayed for activity and the other half was diluted approximately 200000-fold with assay buffer prior to the activity assay. Step-wise dilution and concentration was performed on a Centricon (Millipore) with 10 kDa cut-off. In the dilution method[19] cathepsin X (5 μM) was incubated with inhibitor (100 μM). Half the reaction mixture was diluted 100-fold with the assay buffer containing substrate and immediately assayed for activity, the other half was incubated for 2 hours, diluted 100-fold and then assayed for activity.

[13] = screening at 50 μM compound, read-out: relative inhibition of cathepsin X
[14] = second group, 50 μM compound, 1 h preincubation, read-out: % inhibition (1 h preincubation)
[15] = second group, progress curve analysis with ENZO
[16] = first group, SigmaPlot non-linear regression at 3 different substrate concentrations

| inhibition of cathepsin X enzyme activity in lysates of PC-3 cells [2] | Ki Cathepsin S [3] | inhibition at 50 µM [4, 13] | inhibition at 50 µM [4, 14] | Ki [5] | Ki [6] | Inhibition mechanism ([8]; second group) | Ki [8, 15] | Ki [9] | Ki [10] | Ki Cathepsin L [10] | Ki [3] | Ki [8, 16] | cathepsin X activity after washout ([12]; 1-hour pre-incubation, 100 μM inhibitor, 200000-fold dilution, 10 kDa cut-off) | enzyme activity recovered after 100-fold rapid dilution ([12]; dilution method, cathepsin X 5 μM, inhibitor 100 μM) | SMILES | kinact/Ki [1] | preference for cathepsin X over cathepsins B or L [1] | inhibition of PC-3 cell migration [7] | inhibition at 10 µM [7] | increase of neurite outgrowth [11] |
| --- | --- | --- | --- | --- | --- | --- | --- | --- | --- | --- | --- | --- | --- | --- | --- | --- | --- | --- | --- | --- |
| – | – | – | – | – | – | – | – | – | – | – | – | – | retained cathepsin X inhibition | remained inhibited | CC(C)C[C@H](NC(=O)[C@H]1O[C@@H]1C(=O)O)C(=O)NCCCCN=C(N)N [Compound E-64] | 775 M^–1s^–1 | – | – | – | – |
| – | – | 60 to 75% | – | 392 ± 121 µM | 483.1 ± 0.6 µM | – | – | 210 ± 11 µM | 902 ± 89.7 µM | – | 463 ± 42.9 µM | 29.2 ± 2.44 µM | – | – | Nc1nc(SCC(=O)c2ccc3c(c2)OCCO3)n[nH]1 [Compound 2, 2-((5-Amino-1H-1,2,4-triazol-3-yl)thio)-1-(2,3-dihydrobenzo[b][1,4]dioxin-6-yl)ethanone] | – | – | – | 15 to 30% | statistically significant increase |

More lines, now with the values behind:

| SMILES | inhibition of cathepsin X enzyme activity in lysates of PC-3 cells [2] | Ki Cathepsin S [3] | inhibition at 50 µM [4, 13] | inhibition at 50 µM [4, 14] | Ki [5] | Ki [6] | Inhibition mechanism ([8]; second group) | Ki [8, 15] | Ki [9] | Ki [10] | Ki Cathepsin L [10] | Ki [3] | Ki [8, 16] | cathepsin X activity after washout ([12]; 1-hour pre-incubation, 100 μM inhibitor, 200000-fold dilution, 10 kDa cut-off) | enzyme activity recovered after 100-fold rapid dilution ([12]; dilution method, cathepsin X 5 μM, inhibitor 100 μM) | kinact/Ki [1] | preference for cathepsin X over cathepsins B or L [1] | inhibition of PC-3 cell migration [7] | inhibition at 10 µM [7] | increase of neurite outgrowth [11] |
| --- | --- | --- | --- | --- | --- | --- | --- | --- | --- | --- | --- | --- | --- | --- | --- | --- | --- | --- | --- | --- |
| CCCNC(=O)C1OC1C(=O)NC(C(=O)O)C(C)CC (stereo not drawn) [nPrNH-(2 S,3 S)tEps-Ile-OH] | – | – | – | – | – | – | – | – | – | – | – | – | – | – | – | 225 M^–1s^–1 | 10 fold | – | – | – |
| Cn1cnc(SCC(=O)c2ccc3c(c2)OCCO3)n1 [Compound 12, 1-(2,3-Dihydrobenzo[b][1,4]dioxin-6-yl)-2-((1-methyl-1H-1,2,4-triazol-3-yl)thio)ethanone] | trend toward less potent inhibition | n.i. | > 70% | 82% | > 500 µM | > 500 µM | competitive | 5.88 ± 0.21 µM | 120.5 ± 0.9 µM | > 500 µM | – | – | – | – | – | – | – | failed to affect cell migration | – | – |
| Cc1ccccc1-n1cnnc1SCC(=O)c1ccc2c(c1)OCCO2 [Compound 20, 1-(2,3-Dihydrobenzo[b][1,4]dioxin-6-yl)-2-((4-(o-tolyl)-4H-1,2,4-triazol-3-yl)thio)ethan-1-one] | – | n.i. | > 70% | 79% | 301 ± 214 µM | > 500 µM | competitive | 8.78 ± 0.39 µM | 83.1 ± 7 µM | – | n.i. | – | – | – | – | – | – | – | 15 to 30% | statistically significant increase |
| Cc1[nH]c2ccccc2c1C(=O)CSc1n[nH]c(N)n1 [Compound 1, 2-((5-Amino-1H-1,2,4-triazol-3-yl)thio)-1-(2-methyl-1H-indol-3-yl)ethanone] | trend toward less potent inhibition | – | 60 to 75% | – | > 1000 µM | 1870 ± 240 µM | – | – | 371 ± 97.9 µM | 975 ± 101 µM | – | > 1000 µM | 38.4 ± 0.2 µM | – | – | – | – | failed to affect cell migration | – | – |
